Reference: PubChem BioAssay AID2060890 (Molecular Pharmacology Branch, DTP, NCI, 2025)

Test system: LG0703-F948-PDC complex spheroid viability
Assay: Anticancer human tumor LG0703-F948-PDC patient-derived lung adenocarcinoma cell line growth inhibition [RAS]
Details: for IC50: curve of first compound; for viability, T/C: stronger effect = lower value
From the text: RAS pathway inhibitors in Combinations in Complex Spheroids
A high-throughput screen of multi-cell type tumor spheroids was designed to identify active combinations of RAS pathway inhibitors and targeted small molecules. Complex spheroids include a stromal component modeled by human endothelial cells (HUVEC) and fibroblasts modeled by human mesenchymal stem cells (MSCs). The concentration ranges selected for each drug and investigational agent were based upon clinically achievable concentrations if the clinical Cmax of the agent was known.
Compounds. The drugs and investigational agents: abemaciclib (NSC768073), cobimetinib (NSC768068), divarasib (GDC6063, NSC841802), docetaxel (NSC628503), GDC-1971 (RLY-1971, NSC841576), gemcitabine (NSC613327), inavolisib (NSC800729), ipatasertib (NSC767898), KB-0742 (NSC834161), MRTX-1133 (NSC836407), osimertinib (NSC779217), RMC-4630 (NSC839698), RMC-6236 (NSC851965), RMC-6291 (NSC852671), Ro-3306 (NSC812927), sapanisertib (NSC764658), SN-38 (NSC673596), staurosporine (NSC755774), SY5609 (NSC837396), and tovorafenib (DAY101, NSC766906), were obtained from the National Cancer Institute (NCI) Developmental Therapeutics Program Chemical Repository. The FDA-approved anticancer drug set is available from the NCI Developmental Therapeutics Program. […] The stock solutions were prepared in dimethyl sulfoxide (DMSO, Sigma-Aldrich, St. Louis, MO, cat. D2650) at 800-fold the tested concentration and stored at -70 degrees C prior to their use. All drugs and investigational agents were tested over a range starting from a high concentration at or near the clinical Cmax and decreasing in half-log increments. If the clinical Cmax for an agent had not been determined, the highest concentration tested was 10 microM.
Cell Culture. All cells were maintained in an incubator at 37 degrees C and 5% CO2 with 95% humidity. The PDC lines were cultured according to standard operating procedures established by the NCI PDMR. All PDCs were thawed and cultured in Matrigel-coated flasks prepared with a working solution of 1X Ham's F-12 nutrient mix, without supplementation (Invitrogen, Waltham, MA, cat. 11765054), 100 U/mL penicillin-streptomycin (Invitrogen, cat. 15140122), and 2.5% Matrigel (Corning Inc., Corning, NY, cat. 354248) for the first three passages. The 362531-283-R-J2-PDC and 782815-120-R-J1-PDC lines were cultured in 6C/Colon 1B media, which includes advanced DMEM/F-12 (Thermo Fisher Scientific, cat. 12634028), 10 mM HEPES (Thermo Fisher Scientific, cat. 15630080), 1X GlutaMAX supplement (Thermo Fisher Scientific, cat. 35050061), 0.1 mg/mL primocin (InvivoGen, San Diego, CA, cat. ant-pm-2), 10% defined fetal bovine serum, heat inactivated (HyClone Laboratories Inc., Logan, UT, cat. SH30070.03HI), 50% L-WRN conditioned media (ATCC, cat. CRL-3276), 1.25 mM N-Acetyl-L-cysteine (Sigma-Aldrich, cat. A9165), 10 mM nicotinamide (Sigma-Aldrich, cat. N0636), 1X B-27 supplement (Thermo Fisher Scientific, cat. 17504044), 1X N-2 supplement (Thermo Fisher Scientific, cat. 17502048), 50 ng/mL human EGF (Thermo Fisher Scientific, cat. PHG0311), and 10 microM Y-27632 dihydrochloride (Tocris Bioscience, cat. 1254). The K12877-001-R-J1-PDC line was cultured in 6I media, which includes all 6C/Colon 1B media plus 10 ng/mL human FGF-10 (PeproTech, cat. 100-26), 1 ng/mL human FGF-2 (PeproTech, cat. 100-18B), 1 µM prostaglandin E2 (Tocris Bioscience, cat. 2296), […] hydrocortisone (Sigma-Aldrich, cat. H4001), and […] bovine insulin (Sigma-Aldrich, cat. I6634). The K86415-001-R-J1-PDC line was cultured in 6D media, which includes all 6C/Colon 1B media components minus the L-WRN conditioned media. The 485176-168-R4-J1-PDC was cultured in PANC media, which includes all 6C/Colon 1B media plus 100 ng/mL human FGF-10 (PeproTech, cat. 100-26), 500 nM SB-431542 (Selleckchem, cat. S1067), and 10 nM gastrin (Tocris Bioscience, cat. 3006). […]
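Also: spheroids exposed to agents for 7 days.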
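For viability, T/C in this document: 100% = DMSO vehicle wells.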

For CCC(CC)c1cc(NC2CCC(N)C2)n2nccc2n1 (configuration not stated) + C#Cc1c(F)ccc2cc(O)cc(-c3ncc4c(N5CC6CCC(C5)N6)nc(OCC56CCCN5CC(F)C6)nc4c3F)c12, the IC50 (second compound 0.0316 µM) was 1150 nM, the IC50 (second compound 0.1 µM) was 1120 nM and the IC50 (second compound 0.316 µM) was 1350 nM. It also gave an IC50 (second compound 1 µM) of 936 nM, an IC50 (second compound 3.16 µM) of 456 nM and an IC50 (second compound 10 µM) of 35.1 nM. The viability, T/C (second compound 0.0316 µM, first compound 0.0316 µM) was 95%, the viability, T/C (second compound 0.0316 µM, first compound 0.1 µM) was 80.1% and the viability, T/C (second compound 0.0316 µM, first compound 0.316 µM) was 83.9%. It also gave a viability, T/C (second compound 0.0316 µM, first compound 1 µM) of 56.7%, a viability, T/C (second compound 0.0316 µM, first compound 3.16 µM) of 2.63% and a viability, T/C (second compound 0.0316 µM, first compound 10 µM) of 0.05%. It also gave a viability, T/C (second compound 0.1 µM, first compound 0.0316 µM) of 97.5%, a viability, T/C (second compound 0.1 µM, first compound 0.1 µM) of 80.8% and a viability, T/C (second compound 0.1 µM, first compound 0.316 µM) of 87.7%. It also gave a viability, T/C (second compound 0.1 µM, first compound 1 µM) of 55.1%, a viability, T/C (second compound 0.1 µM, first compound 3.16 µM) of 2.53% and a viability, T/C (second compound 0.1 µM, first compound 10 µM) of 0.22%. It also gave a viability, T/C (second compound 0.316 µM, first compound 0.0316 µM) of 81.2%, a viability, T/C (second compound 0.316 µM, first compound 0.1 µM) of 68% and a viability, T/C (second compound 0.316 µM, first compound 0.316 µM) of 73.4%. The viability, T/C (second compound 0.316 µM, first compound 1 µM) was 66.5%, the viability, T/C (second compound 0.316 µM, first compound 3.16 µM) was 3.15% and the viability, T/C (second compound 0.316 µM, first compound 10 µM) was 0.1%. For the same compound, the viability, T/C (second compound 1 µM, first compound 0.0316 µM) was 73.4%, the viability, T/C (second compound 1 µM, first compound 0.1 µM) was 69.8% and the viability, T/C (second compound 1 µM, first compound 0.316 µM) was 65.1%. The viability, T/C (second compound 1 µM, first compound 1 µM) was 49.3%, the viability, T/C (second compound 1 µM, first compound 3.16 µM) was 2.65% and the viability, T/C (second compound 1 µM, first compound 10 µM) was 0.06%. For the same compound, the viability, T/C (second compound 3.16 µM, first compound 0.0316 µM) was 64%, the viability, T/C (second compound 3.16 µM, first compound 0.1 µM) was 55.3% and the viability, T/C (second compound 3.16 µM, first compound 0.316 µM) was 56.7%. It also gave a viability, T/C (second compound 3.16 µM, first compound 1 µM) of 33.8%, a viability, T/C (second compound 3.16 µM, first compound 3.16 µM) of 1.79% and a viability, T/C (second compound 3.16 µM, first compound 10 µM) of 0.56%. It also gave a viability, T/C (second compound 10 µM, first compound 0.0316 µM) of 45%, a viability, T/C (second compound 10 µM, first compound 0.1 µM) of 56% and a viability, T/C (second compound 10 µM, first compound 0.316 µM) of 31.7%. It also gave a viability, T/C (second compound 10 µM, first compound 1 µM) of 19%, a viability, T/C (second compound 10 µM, first compound 3.16 µM) of 0.77% and a viability, T/C (second compound 10 µM, first compound 10 µM) of 0.53%.
